Common to all, as to type: cell-based
The subject of test [1] is pancreatic cancer cells AsPC-1. The test is described as follows: In vitro antitumor assay (Methylene Blue staining), AsPC-1. The following applies: 72 hours culture with compound; read-out: Cell line IC50 AsPC-1. An excerpt: (§1) Gastric cancer and pancreatic cancer cell lines were respectively inoculated on a 96-well plate. Gastric cancer cells KATO III were inoculated at a rate of 1×10^4 cells/well gastric cancer cells MKN-1 were inoculated at a rate of 5×10^5 cells/well, gastric cancer cells MKN-45 were inoculated at a rate of 1×10^4 cells/well, gastric cancer cells MKN-74 were inoculated at a rate of 1×10^4 cells/well, pancreatic cancer cells AsPC-1 were inoculated at a rate of […], pancreatic cancer cells BxPC-3 were inoculated at a rate of 5×10^5 cells/well, pancreatic cancer cells DAN-G were inoculated at a rate of 5×10^5 cells/well, and pancreatic cancer cells SUIT-2 were inoculated at a rate of 5×10^5 cells/well. After culturing the cells for 24 hours, each of the Example compounds or each of the Comparative Example compounds was added to the cells to obtain a final concentration of from 0.0244 μmol/L to 100 μmol/L at a common ratio of 4. Three technical replicates were used. Wells to which no drug was added were prepared as control, and wells to which cells and drugs were not added were prepared as blanks. After the cells were cultured for 72 hours, the culture fluid was removed, the cells were fixed with methanol, and then the cells were stained using a Methylene Blue stain solution. After excess Methylene blue stain solution was washed off, 200 μL of 0.1% hydrochloric acid was added to each well, and the dye was extracted. The light absorbance at 660 nm was measured using a microplate reader, and the cell proliferation inhibitory activity (GI %) was calculated from the light absorbance thus obtained by the following formula. GIXY %=(1−(AXY−B)/(C−B))×100
(§2) Here, GIXY % represents the cell prolj feration-inhibitory activity when the concentration of compound. X is Y μM; AXY represents the average light absorbance of the well to which compound X has been added at Y μM; B represents the light absorbance of a blank well; and C represents the tight absorbance of a control well.
(§3) The GIXY % was determined for various compound concentrations, and a proliferation-inhibition curve was plotted from the concentration and the cell proliferation-inhibitory activity.

The test system of test [2] is pancreatic cancer cells BxPC-3. The test is described as follows: In vitro antitumor assay (Methylene Blue staining), BxPC-3. The following applies: 72 hours culture with compound; read-out: Cell line IC50 BxPC-3.
Excerpt: as §1, §2, §3

Test [3] concerns gastric cancer cells KATO III. The test is described as follows: In vitro antitumor assay (Methylene Blue staining), KATO III. The following applies: 72 hours culture with compound; read-out: Cell line IC50 KATO III.
Excerpt: as §1, §2, §3

The subject of test [4] is gastric cancer cells MKN-1. The test is described as follows: In vitro antitumor assay (Methylene Blue staining), MKN-1. The following applies: 72 hours culture with compound; read-out: Cell line IC50 MKN-1.
Excerpt: as §1, §2, §3

Test [5] concerns gastric cancer cells MKN-45. The test is described as follows: In vitro antitumor assay (Methylene Blue staining), MKN-45. As to conditions: 72 hours culture with compound; read-out: Cell line IC50 MKN-45.
Excerpt: as §1, §2, §3

Test [6] deals with gastric cancer cells MKN-74. The test is described as follows: In vitro antitumor assay (Methylene Blue staining), MKN-74. As to conditions: 72 hours culture with compound; read-out: Cell line IC50 MKN-74.
Excerpt: as §1, §2, §3

Test [7] deals with pancreatic cancer cells SUIT-2. The test is described as follows: In vitro antitumor assay (Methylene Blue staining), SUIT-2. As to conditions: 72 hours culture with compound; read-out: Cell line IC50 SUIT-2.
Excerpt: as §1, §2, §3

Test [8] has as its system pancreatic cancer cells DAN-G. The test is described as follows: In vitro antitumor assay (Methylene Blue staining), DAN-G. As to conditions: 72 hours culture with compound; read-out: Cell line IC50 DAN-G.
Excerpt: as §1, §2, §3

Broadly, the IC50 is the concentration at which inhibition is half-maximal. For the molecule `CC(=O)[O][Pt]1([OH])[O]C(=O)C(=O)[O]1.N[C@@H]1CCCC[C@H]1N` (mixture of isomers) [Comparative Example 1, trans,cis,cis-[Pt(OH)(OAc)(R,R-dach) (ox)]], the IC50 in test [1] is 62.9 µM; in test [2], 44.3 µM; in test [3], 55.7 µM; in test [4] it was 45.3 µM; in test [5], 6.2 µM; in test [6] it was > 100 µM. Also, the IC50 stood at 26.1 µM in test [7] and 36.7 µM in test [8].

`N[C@@H]1CCCC[C@H]1N.O=C1[O][Pt]([Cl])([O]CCO)[O]C1=O` (mixture of isomers) [Comparative Example 2, trans,cis,cis-[PtCl (OCH2CH2OH) (R,R-dach) (ox)]]: the concentration for half-maximal inhibition (IC50) is 9.7 µM in test [1]; 5.7 µM in test [2]; 42.6 µM in test [3]; 10.8 µM in test [4]; 1.9 µM in test [5]; 58.1 µM in test [6]. For the same molecule, the half-maximal inhibitory concentration (IC50) in test [7] was 6.1 µM; in test [8] it was 5.6 µM.

Regarding `N[C@@H]1CCCC[C@H]1N.O=C1[O][Pt]([OH])([OH])[O]C1=O` (mixture of isomers) [Comparative Example 3, trans,cis,cis-[Pt(OH)2 (R,R-dach) (ox)]], the 50% inhibitory concentration (IC50) was > 100 µM in test [4], > 100 µM in test [6], 39.2 µM in test [7] and > 100 µM in test [8].

For the molecule `N[C@@H]1CCCC[C@H]1N.O=C1[O][Pt]([OH])([Cl])[O]C(=O)C12CCC2` (mixture of isomers) [Comparative Example 5, trans,cis,cis-[PtCl(OH) (R,R-dach) (cbdc)]], the IC50 was found to be 4.5 µM in test [4], 29 µM in test [6], 3.3 µM in test [7] and 3.4 µM in test [8].

As for `N[C@@H]1CCCC[C@H]1N.O=C1[O][Pt]([OH])([OH])[O]C(=O)C12CCC2` (mixture of isomers) [Comparative Example 6, trans,cis,cis-[Pt(OH)2(R,R-dach) (cbdc)]], the 50% inhibitory concentration (IC50) in test [4] was > 100 µM; in test [6], > 100 µM; in test [7] it was 79.4 µM; in test [8] it was > 100 µM.

As to `N[C@@H]1CCCC[C@H]1N.O=C([O-])C(=O)[O-].[Cl-].[OH-].[Pt+4]` (mixture of isomers) [Example 1, trans,cis,cis-[PtCl(OH) (R,R-dach) (ox)]], the IC50 in test [1] came to 3.1 µM; in test [2], 1.2 µM; in test [3] it was 13.8 µM; in test [4], 1.9 µM; in test [5], 0.3 µM; in test [6], 16 µM. Also, the values for the IC50 in test [7] and in test [8] were 0.9 µM and 1 µM, respectively.

Regarding `N[C@@H]1CCCC[C@H]1N.O=C1[O][Pt]([OH])([Br])[O]C1=O` (mixture of isomers) [Example 2, trans,cis,cis-[PtBr(OH) (R,R-dach) (ox)]], the half-maximal inhibitory concentration (IC50) in test [4] stood at 2.7 µM; in test [7], 1.5 µM.

Consider `N[C@@H]1CCCC[C@H]1N.[OH][Pt]([Cl])([Cl])[Cl]` (mixture of isomers) [Example 3, trans,cis,cis-[PtCl(OH) (R,R-dach) (Cl)2]], for which the IC50 in test [4] worked out at 2.6 µM; in test [6] it was 17.1 µM; in test [7], 0.9 µM; in test [8] it was 8.6 µM.

`N[C@@H]1CCCC[C@H]1N.O=C(CCc1ccccc1)[O][Pt]1([O]C(=O)CCc2ccccc2)[O]C(=O)C(=O)[O]1` [Comparative Example 4, trans,cis,cis-[Pt(OCOCH2CH2C6H5)2 (R,R-dach)(ox)]]: the IC50 in test [4] turned out to be 9.2 µM; in test [6] it was 27.3 µM; in test [7] it was 1 µM; in test [8], 6.8 µM.

Regarding `N[C@@H]1CCCC[C@H]1N.O=C([O-])C(=O)[O-].[Pt+2]` [Example 1-OHP, oxaliplatin], the IC50 amounted to 1.6 µM in test [1]; 0.8 µM in test [2]; 9.2 µM in test [3]; 0.5 µM in test [4]; 0.1 µM in test [5]; 8.6 µM in test [6]. The IC50 in test [8] is 1.1 µM.

`NC1CCCCC1N.[Cl][Pt][Cl]` (stereo not shown) [Pt(dach)Cl2]: the half-inhibitory concentration (IC50) in test [1] was 14.7 µM; in test [2] it was 3.4 µM; in test [3] it was 13.8 µM; in test [4], 3.7 µM; in test [5] it was 0.5 µM; in test [6], 22.3 µM. Besides, the concentration for half-maximal inhibition (IC50) was determined as 2.1 µM in test [7] and 8.5 µM in test [8].

These data come from patent US10988496B2, “Platinum (IV) complex” (Nippon Kayaku Kabushiki Kaisha, priority 2015, dated 2021).
